# According to patent US9421249B2, “Methods to activate or block the HLA-E/Qa-1 restricted CD8+ T cell regulatory pathway to treat immunological disease” (THE TRUSTEES OF COLUMBIA UNIVERSITY IN THE CITY OF NEW YORK, priority 2007, dated 2016):
# Where no end group is shown, it is not given here.
# What was measured:
# Qa-1 [1] = test: Qa-1 binding assay (stabilization of Qa-1a surface expression on 3F4 transfectants, FACS); parameters: species or system murine; conditions: 3F4 cells, peptide 50 μM, 26° C., approximately 18 hours
# Procedure: The capacity of the peptides to bind to Qa-1 was first assessed by their ability to stabilize Qa-1 surface expression on 3F4 cells. The 3F4 cells were incubated at 26° C. for approximately 18 hours with Hsp60sp or Qdm peptides and a Qa-1 non-binding peptide HEL 74-96 served as control peptide (12, 14 and 17). As shown by FIG. 6, the binding of exogenous peptide at 26° C. causes a shift in the intensity of Qa-1a surface staining analyzed by FACS.
# Selected Qa-1a-PcDNA3.1 positive transfectants detected by RT-PCR were assayed for their Qa-1 surface expression after loading with known Qa-1 binding peptides. In brief, Qa-1a transfectants were incubated at 26° C. for approximately 18 hours with Hsp60sp or Qdm peptides (10, 12 and 17). The surface expression of Qa-1a was assessed by staining with anti-Qa-1a sera followed by Phycoerythorine (PE)-goat anti-mouse Ig, analyzed on a FACScan flow cytometer and CellQuest™ software (Becton Dickinson, Mountain View, Calif.)(1). All peptides were used at 50 μM unless specifically indicated.
# CD94/NKG2A [2] = test: NK assay with peptide-loaded 3F4 cells; type: cell-based; conditions: 3F4 cells loaded with peptide at 26° C. overnight; mouse NK cells 2 hrs
# Excerpt: Since a significant number of murine CD8+ T cells express CD94/NKG2A, it was investigated whether Qa-1/Hsp60sp generated in activated murine T cells is capable of interacting with CD94/NKG2A in a functional NK assay. […] This is also compatible with the notion that two types of Qa-1/HLA-E binding peptides could be distinguished by their ability of interact with CD94/NKG2A in both humans (14) and mice.
# NK cell lines are routinely established from B10PL mice (24). Unlabeled 3F4 cells were loaded with test peptides at 26° C. overnight and mixed with an equal number of CFSE labeled human EBV transformed LCL cells which are not susceptible to the killing by mouse NK cells. Graded numbers of mouse NK cells were added to the mixture of 3F4 and LCL cells and further incubated at 37° C. for 2 hrs. 3F4 cells, which were not loaded with peptides or loaded with non-Qa-1 binding peptides served as controls. The cell mixtures were then stained with anti mouse H-2^U mAb 3-8-3P-PE to distinguish NK cells from target cells. The change in the ratio of 3F4 to LCL cells in the presence or absence of NK cells in each group detected by FACS (1) reflects the specific NK killing: % specific killing={[the killing ratio in control wells (without NK)−the killing ratio in experimental wells (with NK)]/the killing ratio of control wells}×100%.
# Qa-1/HLA-E = conditions: cited from earlier work
# EAE in B10PL mice = test: Peptide vaccination in EAE model; type: in vivo; conditions: B10PL mice immunized subcutaneously with antigen emulsified with IFA; compared with IFA alone
# Excerpt: B10PL mice were vaccinated with either 1-9NacMBP, a MHC Class II biding peptide derived from MBP or p277, a MHC Class II biding peptide derived from Hsp60. In this regard, it is well known that 1-9NacMBP is a pathogenic peptide in B10PL mice and p277 may be involved in the pathogenesis of T1D in certain mouse strains (174) but irrelevant to EAE.
# T1D in NOD mice = test: Peptide vaccination in spontaneous T1D model; conditions: NOD mice immunized subcutaneously with antigen emulsified with IFA; compared with IFA alone
# Procedure: In the standard protocol used throughout this study female 8-10 weeks old B10PL or 3-4 weeks old NOD mice were immunized subcutaneously with 1-9Nac MBP or p277 emulsified with IFA at 100 uM/mouse as described. EAE was induced at least one week after peptide vaccination. CD8+ T cells were purified from spleens and draining lymph nodes of peptide vaccination protected EAE/B10PL mice or T1D/NOD mice by positive selection with CD8 MACS magnetic beads (Miltenyibiotec, Inc. Auburn Calif.). The purity of CD8+ T cells is routinely >95%.
# The effect of peptide vaccination or adoptive transfer of CD8+ T cells was evaluated by assessing the clinical EAE (181) or T1D in the recipient mice.
# Qa-1 [3] = test: Peptide competition assay (functional NK assay); type: cell-based, murine; conditions: Qdm 20 μM; competing peptide 50, 100, 200 μM; 18 hrs at 26° C.; E/T ratio 2:1
# Procedure: The ability of the Hsp60sp to compete with Qdm for binding to Qa-1 was further tested in a functional NK assay.
# Competing peptides (Hsp60sp or control non-Qa-1 binding peptide) at 50, 100, 200 μM were added to the 3F4 cells, together with 20 μM Qdm for 18 hrs at 26° C. (14). Equal numbers of CFSE labeled LCL cells were mixed with 3F4 cells and NK cells were then added into the mixture of peptide loaded 3F4 cells and LCL cells. The percent NK killing of 3F4 cells was evaluated.
# [4] = test system: Qa-1 dependent CD8+ T cells; test: CD8+ T cell inhibition assay, CD8+ T cells from EAE recovered mice; type: cell-based; conditions: CD8+ T cells isolated from EAE recovered B10PL mice
# Excerpt: It was next tested if Qa-1/Hsp60sp is the target for the regulatory CD8+ T cells. […] The Qa-1 expressing 3F4 cell was used as the Qa-1 peptide presenting cell to test if Hsp60sp is preferentially recognized by the regulatory CD8+ T cells in a CD8+ T cell inhibition assay. The 1-9NacMBP (myelin basic protein) specific, intermediate avidity clone 1AE10, capable of inducing EAE in vivo (8, 19) served as a positive control, and a non-encephalitogenic, low avidity clone 4D10 as well as 3F4 loaded with control non-Qa-1 binding peptide or Qdm served as negative controls. […] Thus, Hsp60sp is, indeed, a specific target recognized by the CD8+ T cells, when presented by Qa-1.
# 3F4 cells were passively loaded with peptides overnight at 26° C. Equal number of unlabeled 3F4 cells loaded with peptides and CFSE labeled 3F4 cells that are not loaded with peptide were mixed and a graded number of CD8+ T cells were added to the targets. […] The ratio between peptide-loaded (non-CFSE-labeled) 3F4 cells and non-loaded (CFSE labeled) 3F4 cells in the presence of CD8+ T cells was determined as % of specific inhibition: {[the ratio of loaded to unloaded 3F4 cells in control cultures (without CD8+ T cells)−the ratio in experimental cultures (with CD8+ T cells)]/the ratio in control cultures}×100% (1).
# [5] = test system: Qa-1 restricted CD8+ T cells; test: CD8+ T cell inhibition assay, CD8+ T cells from peptide vaccination protected mice; type: cell-based
# Excerpt: To test this hypothesis, a Qa-1a expressing cell 3F4 was used as peptide-presenting cell to determine the specificity of the CD8+ T cells isolated from either 1-9Nac MBP or p277 vaccination protected B10PL and NOD mice.
# Physiological target T cells, the intermediate avidity 1-9Nac MBP specific clone 1AE10 from B10PL mice and p277 specific clone 15A6 from NOD mice served as positive controls, and low avidity MBP specific clone 4D10 and p277 specific clone 1304 served as negative control to assess the function and the specificity of the CD8+ T cells. It is noted that “quantitative” but not “qualitative” differences between the Qa-1/Hsp60sp versus Qa-1/Qdm is a function of avidity of T cell activation which determines their susceptibility to the down-regulation by the CD8+ T.
# 3F4 cells were passively loaded with peptides overnight at 26° C. Equal number of unlabeled 3F4 cells loaded with peptides and CFSE labeled 3F4 cells that are not loaded with peptide were mixed and a graded number of CD8+ T cells were added to the targets. […] 4 days later, the cell mixtures were stained with anti-mouse CD8-PE mAb to distinguish CD8+ T cells from target cells and the CD8+ T cells were gated out during the analysis when the ratio between two types of targets were calculated. […]
# [6] = test system: HLA-E restricted CD8+ T cells; test: CD8+ T cell inhibition CFSE assay on HLA-E transfectants loaded with peptide; type: cell-based, human
# Excerpt: Data obtained in human studies support the concept established in the murine studies.
# To test if HLA-E restricted CD8+ T cells also play a similar role in the control of human T1D, the function of CD8+ T cells in freshly isolated PBMC from T1D patients was first tested. For this purpose two assays were employed. The first is a standard T cell proliferation assay measuring self non-self discrimination, comparing the overall immune responses of human PBMC to self versus foreign antigens in the presence or absence of CD8+ T cells. Thus, intact PBMC populations or purified CD4+ T cells were cultured with varying doses of the self-antigen GAD or foreign antigen TT. Comparing PBMC with purified CD4+ T cells could not alone definitively pinpoint the function of the CD8+ T cells contained in the PBMC. […] This is the case in testing the function of CD8+ T cells in T1D patients combined with the CD8+ T cell inhibition CFSE assay, which can be applied as a relative simple and feasible clinical test. […] We then proceeded to further identify the specificity of the CD8+ T cells. Thus, purified CD8+ T cells from T1D patients were tested on HLA-E transfectant H3B2 cells loaded with Hsp60sp. H3B2 loaded with B7sp or non-HLA-E binding peptide served as controls.
# CD8+ T cells were in vitro primed with DCs loaded with either Hsp60sp [CD8(H)], or B7sp [CD8(B)] and tested for their specificity and the function of self-nonself discrimination using the two assays described above. […] To verify the restored function of the CD8+ T cells, these CD8+ T cell lines were also tested in a CFSE assay on HLA-E transfectant H3B2 cells loaded with Hsp60sp. A CD8(B) line from each patient served as control. […] This phenomenon has been observed in about 60% of the 10 total T1D patients tested to date.
# CD94/NKG2A [7] = target: CD94/NKG2A (Homo sapiens, UniProt P26715+Q13241); conditions: cited from earlier work
# Sequence of CD94/NKG2A (Homo sapiens, UniProt P26715+Q13241) (Q13241 whole entry): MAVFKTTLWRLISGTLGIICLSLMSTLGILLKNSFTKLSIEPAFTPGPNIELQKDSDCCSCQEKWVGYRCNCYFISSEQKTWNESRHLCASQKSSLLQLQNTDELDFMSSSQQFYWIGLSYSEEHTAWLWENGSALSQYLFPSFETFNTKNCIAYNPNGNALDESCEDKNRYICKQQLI
# Sequence of CD94/NKG2A (Homo sapiens, UniProt P26715+Q13241) (P26715 whole entry): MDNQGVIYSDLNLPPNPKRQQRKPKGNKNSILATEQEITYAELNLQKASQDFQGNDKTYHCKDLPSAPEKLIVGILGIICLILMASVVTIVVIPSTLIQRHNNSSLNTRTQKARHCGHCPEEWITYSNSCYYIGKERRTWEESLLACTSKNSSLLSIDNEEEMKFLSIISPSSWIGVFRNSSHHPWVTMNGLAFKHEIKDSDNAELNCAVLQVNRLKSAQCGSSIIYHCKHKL
substance,measurement,setting,value
AMAPRTLLL [Qdm],Binding to Qa-1 (shift in intensity of Qa-1a surface staining),Qa-1 [1],could bind to Qa-1
same,Inhibition of NK killing of peptide-loaded 3F4 cells,CD94/NKG2A [2],resistant to the NK killing
same,Binding to Qa-1,Qa-1/HLA-E,binds with high affinity
AcASGLAPSGA (Ac-ASGLAPSGA; listed as Mus musculus) [1-9Nac MBP],Protection from subsequently induced EAE,EAE in B10PL mice,equally effectively protected from EAE
same,Protection from spontaneously developed T1D,T1D in NOD mice,equally protected NOD mice from spontaneously developed T1D
HEL: conventional foreign antigen Hen Egg Lysozyme,Protection from subsequently induced EAE,EAE in B10PL mice,CD8+ T cell dependent protection from either EAE or T1D
same,Protection from spontaneously developed T1D,T1D in NOD mice,CD8+ T cell dependent protection from either EAE or T1D
QMRPVSRAL (listed as Mus musculus) [Hsp60sp],Binding to Qa-1 (shift in intensity of Qa-1a surface staining),Qa-1 [1],could bind to Qa-1
same,Inhibition of NK killing of peptide-loaded 3F4 cells,CD94/NKG2A [2],does not inhibit NK killing
same,Competition with Qdm for binding to Qa-1 (abrogation of Qdm protection from NK killing),Qa-1 [3],abrogated the protection of NK killing of 3F4 by Qdm in a dose dependent manner
same,Susceptibility of peptide-loaded 3F4 cells to down-regulation by CD8+ T cells,[4],susceptible to the down-regulation by the CD8+ T cells
same,Down-regulation of peptide-sensitized 3F4 cells by CD8+ T cells,[5]; CD8+ T cells from 1-9Nac MBP or p277 vaccination protected B10PL mice,efficiently down-regulated
same,Down-regulation of peptide-sensitized 3F4 cells by CD8+ T cells,[5]; CD8+ T cells from p277 or 1-9Nac MBP vaccination protected NOD mice,efficiently down-regulated
same,Inhibition of H3B2 cells loaded with peptide by CD8(H),"[6]; CD8(H) line from a T1D patient, after in vitro priming with DCs loaded with Hsp60sp",specifically inhibited
same,Inhibition of H3B2 cells loaded with peptide by CD8+ T cells,[6]; CD8+ T cells from freshly isolated PBMC of T1D patients (11 total patients tested),failed to specifically inhibit
same,Inhibition of H3B2 cells loaded with peptide by CD8+ T cells,[6]; CD8+ T cells from normal controls,specifically inhibited
same,Inhibition of HLA-E transfected clones loaded with peptide by CD8(H),[6]; CD8+ T cells primed in vitro with Hsp60sp loaded dendritic cells,specifically inhibit
same,Competition with B7sp for occupancy of HLA-E,Qa-1/HLA-E; human studies,capable of competing with B7sp peptide
same,Interaction of HLA-E/peptide complex with CD94/NKG2A,CD94/NKG2A [7],does not interact with CD94/NKG2A
VLGGGVALLRVIPALDSLTPANED [p277],Protection from subsequently induced EAE,EAE in B10PL mice,equally effectively protected from EAE
same,Protection from spontaneously developed T1D,T1D in NOD mice,completely protected NOD mice from spontaneously developed T1D up to 35 week's of age
